Earlier results on two compounds are cited in patent publication US20090110724A1, “COMPOSITIONS AND METHODS FOR TREATMENT OF PAIN” (Everett Laboratories, Inc., priority 2007, published 2009).

For series [1] the following is noted: cold water.
Series [2] has as its system COX-3. The conditions noted are these: Simmons et al. 2002.

The structures appear in SMILES notation.

As for `C=CCC1(CC(C)C)C(=O)NC(=O)NC1=O` [Butalbital, 5-allyl-5-isobutylbarbituric acid], the solubility result in series [1] is listed as “slightly soluble”.

With `CC(=O)Nc1ccc(O)cc1` [acetaminophen, N-(4-hydroxyphenyl)acetamide], the “inhibition of COX-3” value in series [2] is given as “strong inhibition”.
